{
  "source": "patent US20230381332A1",
  "about": "“Deuterated Camptothecin Derivative And Antibody-drug Conjugate Thereof” (Baili-Bio (Chengdu) Pharmaceutical Co., Ltd., priority 2020, published 2023)",
  "data": [
    {"experiment": "Clearance half-life test of deuterated camptothecin drugs in liver microsomes", "assay_type": "in vitro ADME, Human", "conditions": "human liver microsomes 1.0 mg/ml, 10 μM test article, NADPH 1.0 mM, 37° C., 120 minutes", "experimental": "(§1) Embodiment 36: Clearance Half-Life Test of Deuterated Camptothecin Drugs\n(§2) Human liver microsomes (supplied by Xenotech))\n(§3) 1. Add the working solution of the test substance to the liver microsome working solution and pre-incubate at 37° C. for 5 minutes, then add the prepared NADPH working solution and mix well. Make the reaction volume of the incubation system reach 200 μL, and the liver microsomes concentration in the incubation system is 1.0 mg/mL, the test substance concentration is 10 μM. The incubation tube is incubated in a water bath at 37° C. for 120 minutes. In the incubation system of the test substance, total organic solvents (DMSO and acetonitrile or other organic The minimum volume content of the solvent) is <1%, and the DMSO content is <0.1%. All operations are performed on wet ice.\n(§4) 2. For the blank sample, add the corresponding volume of phosphate buffer solution instead of the working solution of the test substance. For the 0 min sample, first add the stop solution and the liver microsome solution and mix well, and then add the working solution of the test substance.\n(§5) 3. At the end of the incubation, add 400 μL of stop solution to terminate the reaction, and remove the incubation sample from the water bath.\n(§6) 4. After the reaction was terminated, the sample was shaken and centrifuged at a centrifugal force of 4700 g for 10 minutes. After centrifugation, 200 μL of the supernatant was pipetted into a 96-well plate and directly used for LC-MS analysis to analyze metabolites and main drug ratio.", "units": {"Ratio of main drug after incubation": "%"}, "values": [
      {"smiles": "[2H]C(O)C(=O)N[C@H]1CCc2c(C)c(F)cc3nc4c(c1c23)Cn1c-4cc2c(c1=O)COC(=O)[C@]2(O)CC", "note": "(stereo partly drawn) [D-D1]", "Ratio of main drug after incubation": 98},
      {"smiles": "CC[C@@]1(O)C(=O)OCc2c1cc1n(c2=O)Cc2c-1nc1cc(F)c(C)c3c1c2[C@@H](NC(=O)CO)CC3", "note": "[Compound 2, reference compound]", "Ratio of main drug after incubation": 65}
    ]},
    {"experiment": "Clearance half-life test of deuterated camptothecin drugs in liver microsomes", "assay_type": "in vitro ADME, Human", "conditions": "human, 120 min, 10 μM", "experimental": "as §1, §2, §3, §4, §5, §6", "units": {"Ratio of main drug after incubation": "%"}, "values": [
      {"smiles": "[2H]C([2H])([2H])N(C(=O)CO)[C@@H]1CCc2c(C)c(F)cc3nc4c(c1c23)Cn1c-4cc2c(c1=O)COC(=O)[C@]2(O)CC", "note": "[D-D15]", "Ratio of main drug after incubation": 91},
      {"smiles": "[2H]C(C)(O)C(=O)N[C@H]1CCc2c(C)c(F)cc3nc4c(c1c23)Cn1c-4cc2c(c1=O)COC(=O)[C@]2(O)CC", "note": "(stereo partly drawn) [D-D3]", "Ratio of main drug after incubation": 97},
      {"smiles": "CC[C@@]1(O)C(=O)OCc2c1cc1n(c2=O)Cc2c-1nc1cc(F)c(C)c3c1c2[C@@H](NC(=O)[C@@H](O)C1CC1)CC3", "note": "[Compound 7, reference compound]", "Ratio of main drug after incubation": 85},
      {"smiles": "[2H]C(O)(C(=O)N[C@H]1CCc2c(C)c(F)cc3nc4c(c1c23)Cn1c-4cc2c(c1=O)COC(=O)[C@]2(O)CC)C(F)(F)F", "note": "(stereo partly drawn) [D-D5]", "Ratio of main drug after incubation": 99},
      {"smiles": "[2H]C([2H])([2H])C(O)C(=O)N(C)[C@@H]1CCc2c(C)c(F)cc3nc4c(c1c23)Cn1c-4cc2c(c1=O)COC(=O)[C@]2(O)CC", "note": "(stereo partly drawn) [D-D19]", "Ratio of main drug after incubation": 97},
      {"smiles": "CC[C@@]1(O)C(=O)OCc2c1cc1n(c2=O)Cc2c-1nc1cc(F)c(C)c3c1c2[C@@H](NC(=O)[C@H](C)O)CC3", "note": "[Compound 3, reference compound]", "Ratio of main drug after incubation": 56},
      {"smiles": "[2H]C([2H])([2H])C([2H])(O)C(=O)N[C@H]1CCc2c(C)c(F)cc3nc4c(c1c23)Cn1c-4cc2c(c1=O)COC(=O)[C@]2(O)CC", "note": "(stereo partly drawn) [D-D11]", "Ratio of main drug after incubation": 96},
      {"smiles": "CC[C@@]1(O)C(=O)OCc2c1cc1n(c2=O)Cc2c-1nc1cc(F)c(C)c3c1c2[C@@H](NC(=O)[C@H](O)C(F)(F)F)CC3", "note": "[Compound 5, reference compound]", "Ratio of main drug after incubation": 73},
      {"smiles": "[2H]C(O)(C(=O)N[C@H]1CCc2c(C)c(F)cc3nc4c(c1c23)Cn1c-4cc2c(c1=O)COC(=O)[C@]2(O)CC)C1CC1", "note": "(stereo partly drawn) [D-D7]", "Ratio of main drug after incubation": 96}
    ]}
  ]
}
